According to patent US11992494B2, “Cyclopentathiophene carboxamide derivatives as platelet activating factor receptor antagonists” (Boehringer Ingelheim International GmbH, priority 2021, dated 2024):

molecular target: PAFR (Homo sapiens, UniProt P25105); test: cellular HTRF IP1 assay: inhibition of PAFR activation by PAF C-16 ligand (endpoint assay); assay type: cell-based; set-up: expressed in transfected cells; host or cells: HEK293; details: HEK293 cells overexpressing human PAFR; PAF ligand 11 nM; Table 2
Sequence (P25105 whole entry): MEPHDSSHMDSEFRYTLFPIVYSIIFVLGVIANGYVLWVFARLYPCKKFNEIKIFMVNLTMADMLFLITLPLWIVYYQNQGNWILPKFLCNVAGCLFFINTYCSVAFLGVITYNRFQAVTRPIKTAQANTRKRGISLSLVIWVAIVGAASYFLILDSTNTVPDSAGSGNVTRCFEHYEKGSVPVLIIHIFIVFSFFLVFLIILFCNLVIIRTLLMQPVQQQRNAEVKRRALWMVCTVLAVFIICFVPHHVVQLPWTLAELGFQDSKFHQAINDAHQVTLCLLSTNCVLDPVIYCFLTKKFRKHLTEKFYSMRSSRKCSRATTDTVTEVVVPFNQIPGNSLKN
Description: The ability of compounds of formula (I) to inhibit the activation of the PAF receptor (PAFR) by the PAF C-16 ligand (PAF) is determined using the following cellular HTRF IP1 assay (IP1 Gq assay kit from Cisbio, Cat. no.: 62IP1APEJ) in assay buffer (1×HBSS, 20 mM Hepes, pH 7.4, 50 mM LiCl and containing 0.1% (w/v) BSA):
Evaluation of the Inhibition of PAFR Activation Using an Endpoint Assay
HEK293 cells overexpressing human PAFR (produced in-house) are seeded into a Poly-D-Lysine coated 384 well white cell culture microtiter assay plate with lid (15.000 cells per well). Subsequently, the plates are incubated over night at 37° C./5% CO2. On the next day, cells are being washed and subsequently, various concentrations of the test compounds (compounds in 100% DMSO; final concentration of DMSO in wells is 1%) are added to the assay plate via Echo 555 acoustic liquid handler. Plates are then incubated with lid for 90 minutes at 37° C./5% CO2. Thereafter, PAF ligand (Cayman Chemical Company, Item no.: 60900) is added at a final concentration of 11 nM. Plates are then incubated with lid for 60 minutes at 37° C./5% CO2. Then, 5 μl per well of Anti-IP1-Antibody-Cryptate solution and 5 μl per well of IP1-d2 solution are added to all wells of the plate and the plate is incubated for another 60 minutes light protected at room temperature. The emissions at 620 nm and 665 nm (Excitation wavelength: 320 nm) are measured using an Envision Reader (PerkinElmer).

Going from `Cc1nnc2n1-c1sc3c(c1C(c1ccccc1Cl)=NC21CC1)C[C@H](C(=O)NC1(CO)CCCCC1)C3` [Example 71] to `Cc1nnc2n1-c1sc3c(c1C(c1ccccc1Cl)=NC21CC1)C[C@H](C(=O)NC1CC2(CCC2)C1)C3` [Example 80], the IC50 falls from 3.9 nM to 2 nM (1.9-fold).

First: CCOC(=O)N1CCC(N(C)C(=O)[C@@H]2Cc3sc4c(c3C2)C(c2ccccc2Cl)=NC2(CC2)c2nnc(C)n2-4)CC1 [Example 72]
Second: CC(=O)N1CCC(N(C)C(=O)[C@@H]2Cc3sc4c(c3C2)C(c2ccccc2Cl)=NC2(CC2)c2nnc(C)n2-4)CC1 [Example 73]
The IC50 of the first is 4.3-fold lower: 4.9 nM for the first, 21 nM for the second. The first is the more potent here.

Compared with `Cc1nnc2n1-c1sc3c(c1C(c1ccccc1Cl)=NC21CC1)C[C@H](C(=O)NC1CC1)C3` [Example 74], `Cc1nnc2n1-c1sc3c(c1C(c1ccccc1Cl)=NC21CC1)C[C@H](C(=O)N[C@H]1CCOC1)C3` [Example 78] is 2.7-fold higher in IC50: 5.5 nM for the first, 15 nM for the second.

`Cc1nnc2n1-c1sc3c(c1C(c1ccccc1Cl)=NC21CC1)C[C@H](C(=O)N(C)C1CCCCCC1)C3` [Example 75] and `CCN(C(=O)[C@@H]1Cc2sc3c(c2C1)C(c1ccccc1Cl)=NC1(CC1)c1nnc(C)n1-3)C1CCCCC1` [Example 91] are the same in IC50: 1.5 nM for the first, 1.5 nM for the second.

Compared with `Cc1nnc2n1-c1sc3c(c1C(c1ccccc1Cl)=NC21CC1)C[C@H](C(=O)N[C@H]1CC[C@H](C(F)F)CC1)C3` [Example 76], `Cc1nnc2n1-c1sc3c(c1C(c1ccccc1Cl)=NC21CC1)C[C@H](C(=O)N[C@H]1CC[C@H](C(C)(C)O)CC1)C3` [Example 98] is 4.8-fold higher in IC50: 1.9 nM for the first, 9.1 nM for the second.

`Cc1nnc2n1-c1sc3c(c1C(c1ccccc1Cl)=NC21CC1)C[C@H](C(=O)NC1CCn2nccc2C1)C3` (stereo partly shown) [Example 77] and `Cc1nnc2n1-c1sc3c(c1C(c1ccccc1Cl)=NC21CC1)C[C@H](C(=O)NC1CCc2ncccc2C1)C3` (stereo partly shown) [Example 97] are within 1.5-fold of each other in IC50: 10 nM for the first, 8.9 nM for the second.

First: Cc1nnc2n1-c1sc3c(c1C(c1ccccc1Cl)=NC21CC1)C[C@H](C(=O)N(C)C1CCC(C)(C)CC1)C3 [Example 79]
Second: Cc1nnc2n1-c1sc3c(c1C(c1ccccc1Cl)=NC21CC1)C[C@H](C(=O)N(C)[C@H]1CCCC[C@H]1O)C3 [Example 102]
The IC50 of the first is 7.7-fold lower: 0.9 nM for the first, 6.9 nM for the second.

`CCN(C(=O)[C@@H]1Cc2sc3c(c2C1)C(c1ccccc1Cl)=NC1(CC1)c1nnc(C)n1-3)[C@@H]1c2ccccc2C[C@H]1O` [Example 81] and `Cc1nnc2n1-c1sc3c(c1C(c1ccccc1Cl)=NC21CC1)C[C@H](C(=O)N(C)[C@H]1c2ccccc2CC[C@@H]1O)C3` [Example 86] are within 1.5-fold of each other in IC50: 3.6 nM for the first, 4 nM for the second.

Compared with `Cc1nnc2n1-c1sc3c(c1C(c1ccccc1Cl)=NC21CC1)C[C@H](C(=O)N[C@H]1CCc2ccccc21)C3` [Example 82], `Cc1nnc2n1-c1sc3c(c1C(c1ccccc1Cl)=NC21CC1)C[C@H](C(=O)N[C@H]1CCc2c(F)cccc21)C3` [Example 92] is 1.7-fold lower in IC50: 1.5 nM for the first, 0.9 nM for the second. The second is the more potent here.

Going from `CCN(C(=O)[C@@H]1Cc2sc3c(c2C1)C(c1ccccc1Cl)=NC1(CC1)c1nnc(C)n1-3)C1CCOCC1` [Example 83] to `Cc1nnc2n1-c1sc3c(c1C(c1ccccc1Cl)=NC21CC1)C[C@H](C(=O)N[C@@H]1CCOC1)C3` [Example 95], the IC50 rises from 6.9 nM to 17 nM (2.5-fold). The first is the more potent here.

Compared with `CO[C@@H]1CCCCC1N(C)C(=O)[C@@H]1Cc2sc3c(c2C1)C(c1ccccc1Cl)=NC1(CC1)c1nnc(C)n1-3` (stereo partly shown) [Example 84], `Cc1nnc2n1-c1sc3c(c1C(c1ccccc1Cl)=NC21CC1)C[C@H](C(=O)N(C)C1CCS(=O)(=O)C1)C3` (stereo partly shown) [Example 89] is 6.5-fold higher in IC50: 2.3 nM for the first, 15 nM for the second.

`COc1cc(C2(NC(=O)[C@@H]3Cc4sc5c(c4C3)C(c3ccccc3Cl)=NC3(CC3)c3nnc(C)n3-5)CC2)ccn1` [Example 85] and `Cc1nnc2n1-c1sc3c(c1C(c1ccccc1Cl)=NC21CC1)C[C@H](C(=O)NC1(c2ccccn2)CC1)C3` [Example 87] are within 1.5-fold of each other in IC50: 3.9 nM for the first, 4.9 nM for the second.

Going from `Cc1nnc2n1-c1sc3c(c1C(c1ccccc1Cl)=NC21CC1)C[C@H](C(=O)N[C@H]1COC[C@H]1C(C)C)C3` [Example 88] to `Cc1nnc2n1-c1sc3c(c1C(c1ccccc1Cl)=NC21CC1)C[C@H](C(=O)N[C@@H]1C[C@H]1C)C3` [Example 107], the IC50 falls from 5.1 nM to 2.7 nM (1.9-fold). The second is the more potent here.

Compared with `Cc1nnc2n1-c1sc3c(c1C(c1ccccc1Cl)=NC21CC1)C[C@H](C(=O)NC1CC2CCC(C1)O2)C3` (stereo partly shown) [Example 90], `Cc1nnc2n1-c1sc3c(c1C(c1ccccc1Cl)=NC21CC1)C[C@H](C(=O)N[C@H]1C[C@H]2OCCC[C@@H]12)C3` [Example 93] is 1.7-fold lower in IC50: 8.8 nM for the first, 5.2 nM for the second.

`Cc1nnc2n1-c1sc3c(c1C(c1ccccc1Cl)=NC21CC1)C[C@H](C(=O)NC1CCC(C)(C)OC1)C3` (stereo partly shown) [Example 94] and `Cc1nnc2n1-c1sc3c(c1C(c1ccccc1Cl)=NC21CC1)C[C@H](C(=O)N[C@@H]1COCC(F)(F)C1)C3` [Example 110] are within 1.5-fold of each other in IC50: 6.4 nM for the first, 4.3 nM for the second.

Compared with `Cc1nnc2n1-c1sc3c(c1C(c1ccccc1Cl)=NC21CC1)C[C@H](C(=O)NC1(c2ccccc2)CCOCC1)C3` [Example 96], `CCC12CC(NC(=O)[C@@H]3Cc4sc5c(c4C3)C(c3ccccc3Cl)=NC3(CC3)c3nnc(C)n3-5)(C1)C2` [Example 109] is 5.5-fold lower in IC50: 6 nM for the first, 1.1 nM for the second.

Compared with `CCn1ncc2c1CC[C@@H](NC(=O)[C@@H]1Cc3sc4c(c3C1)C(c1ccccc1Cl)=NC1(CC1)c1nnc(C)n1-4)C2` [Example 99], `CCn1ncc2c1CC[C@H](NC(=O)[C@@H]1Cc3sc4c(c3C1)C(c1ccccc1Cl)=NC1(CC1)c1nnc(C)n1-4)C2` [Example 100] is 2.7-fold higher in IC50: 8.1 nM for the first, 22 nM for the second. The first is the more potent here.

`CC[C@@H]1C[C@H]2O[C@@H]1C[C@H]2NC(=O)[C@@H]1Cc2sc3c(c2C1)C(c1ccccc1Cl)=NC1(CC1)c1nnc(C)n1-3` [Example 101] and `Cc1nnc2n1-c1sc3c(c1C(c1ccccc1Cl)=NC21CC1)C[C@H](C(=O)N1C[C@H](C)O[C@@H](C)C1)C3` [Example 108, (13′S)-9′-(2-chlorophenyl)-13′-[(2S,6S)-2,6-dimethylmorpholine-4-carbonyl]-3′-methyl-16′-thia-2′,4′,5′,8′-tetraazaspiro[cyclopropane-1,7′-tetracyclo[8.6.0.0^2,6.0^11,15]hexadecane]-1′(10′),3′,5′,8′,11′(15′)-pentaene] are within 1.5-fold of each other in IC50: 6 nM for the first, 4.6 nM for the second.

Compared with `Cc1nnc2n1-c1sc3c(c1C(c1ccccc1Cl)=NC21CC1)C[C@H](C(=O)N[C@@H]1CCc2c1ccnc2N)C3` [Example 103], `Cc1nnc2n1-c1sc3c(c1C(c1ccccc1Cl)=NC21CC1)C[C@H](C(=O)N1CCO[C@@H](C)C1)C3` [Example 106, (13′S)-9′-(2-chlorophenyl)-3′-methyl-13′-[(2S)-2-methylmorpholine-4-carbonyl]-16′-thia-2′,4′,5′,8′-tetraazaspiro[cyclopropane-1,7′-tetracyclo-[8.6.0.0^2,6.0^11,15]hexadecane}-1′(10′),3′,5′,8′,11′(15′)-pentaene] is 1.9-fold lower in IC50: 14 nM for the first, 7.5 nM for the second. The second is the more potent here.

With `Cc1nnc2n1-c1sc3c(c1C(c1ccccc1Cl)=NC21CC1)C[C@H](C(=O)N1CCC(F)(F)C1)C3` [Example 105, (13′S)-9′-(2-chlorophenyl)-13′-(3,3-difluoro-pyrrolidine-1-carbonyl)-3′-methyl-16′-thia-2′,4′,5′,8′-tetraazaspiro[cyclopropane-1,7′-tetracyclo[8.6.0.0^2,6.0^11,15]hexadecane]-1′(10′),3′,5′,8′,11′(15′)-pentaene] the IC50 was 3.6 nM.

same assay, conditions: dedicated head-to-head comparison assay run: cyclopropylene vs di-methyl / cyclobutylene analogues

Work on `Cc1nnc2n1-c1sc3c(c1C(c1ccccc1Cl)=NC21CC1)C[C@H](C(=O)NC1(c2ccccn2)CC1)C3` [Example 87] yielded an IC50 of 5.6 nM.
